Like-named read-outs stand apart in the source and are kept apart here.
Columns and labels:
[1] = in vitro liver microsome metabolic stability, beagle dog; format: in vitro ADME; conditions: Beagle dog liver microsomes, 37°C
Protocol: (§1) Preparation of working solutions for test compounds and standards: An appropriate amount of the compound was accurately weighed and dissolved in a corresponding volume of suitable solvent to prepare 1 mM stock solutions of the test compounds and standards. The stock solutions were then diluted with appropriate solvent to obtain 100 µM working solutions of the test compounds, ensuring that the DMSO content in the working solutions remained below 10%.
(§2) The internal standard compound testosterone (or tolbutamide) and its corresponding solvent, internal standard concentration (200 ng/mL), were selected based on the properties of the test compound.
(§3) • Solution A: 0.1 mol/L K2HPO4 (2.28 g K2HPO4·3H2O was dissolved in 100 mL of double-distilled water); • Solution B: 0.1 mol/L KH2PO4 (1.36 g KH2PO4 was dissolved in 100 mL of double-distilled water); • 80.2 mL of Solution A and 19.8 mL of Solution B were mixed thoroughly, and the pH was adjusted to 7.4.
(§4) 37.5 mg of glycine was weighed, dissolved in 100 mL of ultrapure water, and adjusted to pH 8.0 with NaOH.
(§5) 1.25 mg of glucose-6-phosphate dehydrogenase (400 U/mg) was weighed (the specific amount weighed was calculated based on the activity of the purchased glucose-6-phosphate dehydrogenase), dissolved in 1 mL of glycine buffer to a concentration of 500 U/mL, aliquoted into 20 µL per tube, and stored at -20°C for future use.
(§6) 7.83 mg of NADP, 0.06 mL of D-glucose-6-phosphate (260 mg/mL), and 10.17 mg of MgCl2·6H2O were precisely weighed.
(§7) The mixture was dissolved in 1 mL of pure water. The cofactor ratio composition: NADP 10 mM, D-glucose-6-phosphate 60 mM, MgCl2·6H2O 50 mM.
(§8) The reaction system (taking a 500 µL system as an example) was composed of the following solution ratios: 416.5 µL phosphate buffer, 5 µL compound working solution, 25 µL liver microsomes, 3.5 µL glucose-6-phosphate dehydrogenase, and 50 µL cofactor solution. The total incubation volume could be adjusted according to experimental requirements.
(§9) 416.5 µL of phosphate buffer was taken, 25 µL of liver microsomes, 3.5 µL of glucose-6-phosphate dehydrogenase, and 50 µL of cofactor solution were added, vortexed twice to mix, and preincubated in a 37°C water bath for 5 minutes. Then, 5 µL of the test compound working solution was added, vortexed twice to mix, each time for 2-3 seconds, and placed in a 37°C water bath to initiate the reaction, with two parallel samples set. At 0.5 min, 1 min, 2 min, 5 min, 15 min, and 30 min after the reaction, 50 µL of the mixture was taken and added to centrifuge tubes containing 200 µL of 0°C pre-cooled internal standard working solution to terminate the reaction, vortexed for 1 minute to mix, and centrifuged at 13,000 rpm for 10 minutes in a 4°C pre-cooled high-speed centrifuge. The supernatant was collected for analysis. After the compound was added and vortex-mixed, 50 µL of the mixture was rapidly transferred to a centrifuge tube containing 200 µL of a pre-cooled (0°C) internal standard working solution to terminate the reaction, vortex-mixed for 1 minute, and used as the relative zero-point sample (relative to the standard group). The sample was then placed into a 37°C water bath to initiate the reaction, and timing was started.
(§10) The sample analysis of the test compound was performed using the liquid chromatography-tandem mass spectrometry (LCMS/MS) method. The semi-quantitative determination was performed using the ratio of the analyte peak area to the internal standard peak area. The retention times of the analyte and internal standard, chromatogram acquisition, and chromatogram integration were processed using Analyst software.
(§11) The in vitro elimination rate constant k of the test compound and the control compound was determined by converting the ratio of the peak area of the test compound to the internal standard into the remaining rate, and T1/2 was then calculated according to the following formula. T1/2 = (Ln2)/(k) = (0.693)/(k) [formula] Table 3. […]

[2] = in vitro liver microsome metabolic stability, rat; format: in vitro ADME; conditions: Rat liver microsomes, 37°C
Protocol: as §1, §2, §3, §4, §5, §6, §7, §8, §9, §10, §11

[3] = in vitro liver microsome metabolic stability, human; format: in vitro ADME; conditions: Human liver microsomes, 37°C
Protocol: as §1, §2, §3, §4, §5, §6, §7, §8, §9, §10, §11

[4] = in vivo pharmacokinetic study in SD rats; conditions: rat; for bioavailability: 1 mg/kg PO vs 1 mg/kg IV, read-out: Oral bioavailability F (%); for AUC(0-t) / Cmax / half-life: 1 mg/kg
Protocol: 2.2.1 Rats: SD rats, SPF grade, 6 rats per compound, male, body weight range 180-200 g.
2.2.2 Housing conditions: The animals were housed in an SPF-grade animal facility with free access to food and water, three per cage, under a 12/12-hour light/dark cycle (7:00 am/7:00 pm), at a temperature of 23 ± 3°C.
2.2.3 Drug preparation: The compound was precisely weighed, mixed with the required volume of 1% Tween 80, vortexed for 2 min, and then sonicated for 5 min until no visible particles remained. The mixture was subsequently stirred on a magnetic stirrer for 20 min, and the middle layer of the drug solution was collected for administration. For the IV group, the compound was accurately weighed, dissolved in the required volume of 50% PEG400, sonicated for 10 min, and vortexed until clear before administration.
The rats were randomly divided into 2 groups based on body weight, with 3 rats per compound per group. Group 1 was administered a single oral gavage dose (fasted), and Group 2 was administered a single tail vein bolus injection. Blood collection time points: for the po group, blood was collected at 0.167 h, 0.5 h, 1 h, 2 h, 3 h, 4 h, 6 h, and 8 h; for the iv group, blood was collected at 0.033 h, 0.167 h, 0.5 h, 1 h, 2 h, 4 h, 6 h, and 8 h.
After administration to the rats, blood was collected from the orbital venous plexus according to the sampling time points. Approximately 0.2-0.3 mL of blood was collected at each time point into anticoagulant EP tubes (containing 4 µL of EDTA-K2, 375 mg/mL, dried at 50°C). The tubes were slowly inverted up and down three times and stored in an ice box (for no more than 30 minutes). Centrifugation was performed at 4°C at 3000 × g for 10 minutes, and the supernatant was transferred to labeled EP tubes for bioanalytical testing. If testing could not be performed on the same day, the samples were stored at -80°C until analysis (care was taken to avoid multiple freeze/thaw cycles).
The data were analyzed using WinNonlin via a non-compartmental model to obtain PK parameters (Cmax, AUC0-last, AUCinf, T1/2, etc., selected based on different routes of administration). For specific data, please refer to Table 2. Table 2. PK experimental results of compounds in SD rats

Cc1cccnc1[C@H](Nc1c(Nc2ccnc(C(=O)N(C)C)c2O)c(=O)c1=O)[C@]1(C)CC(F)(F)CO1 (single isomer, unassigned) [128B]
Liver microsome T1-2 (min) Beagle dog [1]: 222.45 min
Liver microsome T1-2 (min) Rat [2]: 216.24 min
Liver microsome T1-2 (min) Human [3]: 158.82 min
bioavailability ([4]; male, plasma): 36.7%
AUC(0-t) ([4]; male, plasma, IV): 910 ng·h/mL
Cmax ([4]; male, plasma, IV): 3270 ng/mL
AUC(0-t) ([4]; male, plasma, PO): 334 ng·h/mL
Cmax ([4]; male, plasma, PO): 182 ng/mL

Cc1cccnc1[C@H](Nc1c(Nc2ccc(F)c(C(=O)N(C)C)c2O)c(=O)c1=O)C1(C)CC(F)(F)C1 [compound 089, (R)-3-((2-(((3,3-difluoro-1-methylcyclobutyl)(3-methylpyridin-2-yl)methyl)amino)-3,4-dioxocyclobut-1-en-1-yl)amino)-6-fluoro-2-hydroxy-N,N-dimethylbenzamide]
Liver microsome T1-2 (min) Beagle dog [1]: 258.52 min
Liver microsome T1-2 (min) Rat [2]: 88.93 min
Liver microsome T1-2 (min) Human [3]: 331.10 min
bioavailability ([4]; male, plasma): 21.1%
AUC(0-t) ([4]; male, plasma, IV): 772 ng·h/mL
Cmax ([4]; male, plasma, IV): 4300 ng/mL
AUC(0-t) ([4]; male, plasma, PO): 163 ng·h/mL
Cmax ([4]; male, plasma, PO): 96.4 ng/mL
half-life ([4]; male, plasma, PO): 2.61 h

Cc1nccnc1[C@H](Nc1c(Nc2ccc(F)c(C(=O)N(C)C(C)C)c2O)c(=O)c1=O)C1(C)CCCC1 [compound 090, (R)-6-fluoro-2-hydroxy-N-isopropyl-N-methyl-3-((2-(((1-methylcyclopentyl)(3-methylpyrazin-2-yl)methyl)amino)-3,4-dioxocyclobut-1-en-1-yl)amino)benzamide]
Liver microsome T1-2 (min) Beagle dog [1]: 355.30 min
Liver microsome T1-2 (min) Rat [2]: 50.16 min
Liver microsome T1-2 (min) Human [3]: 209.60 min

Cc1nccnc1[C@H](Nc1c(Nc2ccnc(C(=O)N(C)C)c2O)c(=O)c1=O)C1(C)CCCC1 [compound 091, (R)-3-hydroxy-N,N-dimethyl-4-((2-(((1-methylcyclopentyl)(3-methylpyrazin-2-yl)methyl)amino)-3,4-dioxocyclobut-1-en-1-yl)amino)picolinamide]
Liver microsome T1-2 (min) Beagle dog [1]: 338.24 min
Liver microsome T1-2 (min) Rat [2]: 72.62 min
Liver microsome T1-2 (min) Human [3]: 717.09 min

CN(C)C(=O)c1nccc(Nc2c(N[C@@H](c3nc(C(F)F)ccc3F)C3(C)CC(F)(F)CO3)c(=O)c2=O)c1O (stereo partly drawn) [compound 097, 4-((2-(((1S)-(4,4-difluoro-2-methyltetrahydrofuran-2-yl)(6-(difluoromethyl)-3-fluoropyridin-2-yl)methyl)amino)-3,4-dioxocyclobut-1-en-1-yl)amino)-3-hydroxy-N,N-dimethylpicolinamide]
Liver microsome T1-2 (min) Beagle dog [1]: 209.62 min
Liver microsome T1-2 (min) Rat [2]: 230.78 min
Liver microsome T1-2 (min) Human [3]: 724.74 min

CN(C)C(=O)c1nccc(Nc2c(NC(c3nc(C(F)(F)F)ccc3F)C3(C)CC(F)(F)CO3)c(=O)c2=O)c1O (centres unmarked) [compound 098]
Liver microsome T1-2 (min) Beagle dog [1]: 102.59 min
Liver microsome T1-2 (min) Rat [2]: 195.59 min
Liver microsome T1-2 (min) Human [3]: 208.30 min
bioavailability ([4]; in vivo): 21.6%
AUC(0-t) ([4]; in vivo, IV): 630 ng·h/mL
Cmax ([4]; in vivo, IV): 2740 ng/mL
AUC(0-t) ([4]; in vivo, PO): 136 ng·h/mL
Cmax ([4]; in vivo, PO): 102 ng/mL
half-life ([4]; in vivo, PO): 2.74 h
